According to US8383550B2, “Defoliant” (Bayer Cropscience AG, priority 2009, dated 2013):

How the values were obtained:
[1] = tested on: Cotton plants of the cultivar "Carmen"; assay: Leaf drop effect on cotton plants after spray application (greenhouse); assay type: in vivo; conditions: 1 l/ha Actirob B added
Experimental: (§1) A water application rate of 300 l/ha was initially charged. The components herbicide and adjuvant were then added with stirring at the application rates and in the manner stated in the tables, such that a homogeneous spray liquor was formed. Here, the active ingredients were employed as suspension concentrates (thidiazuron as ®Escalate liquid SC500. Metribuzin as ®Sencor SC 80, thidiazuron+diuron as ®Dropp Ultra SC180) from Bayer CropScience AG. The adjuvant used was ®Actirob B (Novance).
(§2) Cotton seeds of the cultivar “Carmen” were sown at a depth of 1 cm and cultivated in a greenhouse cabin (20000-50000 LUX light: 14 hrs/day; temperature at night: 22° C., during the day: 30° C., rel. atmospheric humidity at night: 65%, during the day 50%) until they had reached the 6-8 leaf stage.
(§3) The plants were treated on a laboratory spray track with spray liquors of thidiazuron and thidiazuron with combination partners. The water application rate for the spray application was 300 l/ha. After the treatment, the plants were returned to the greenhouse cabin.
4 and 8 days after the application, the leaf drop effect was evaluated (leaf drop %): • 0%=no noticeable effect compared to untreated plants; • 100%=all leaves have dropped off.

[2] = tested on: Cotton plants of the cultivar "Carmen"; assay: Regrowth of cotton plants, by weighing newly formed leaf material; assay type: in vivo; conditions: 2 weeks after application, 1 l/ha Actirob B added, repeated twice
Experimental: as §1, §2, §3
2 weeks after the application, the regrowth of the plants was assessed by weighing the newly formed leaf material. The tabular values express the regrowth as a percentage of the untreated control.

[3] = Test 1, dose 30 g of a.i./ha, 0%=no effect, 100%=all leaves dropped

Row | Structure (SMILES) | Leaf drop [%] 8 days after application ([1]; Test 1, dose 30 g of a.i./ha) | Leaf drop [%] 4 days after application [1, 3] | Regrowth [%] as a percentage of the untreated control ([2]; Table 3, dose 30 g of a.i./ha) | Leaf drop [%] 4 days after application ([1]; Test 1, dose 15 g of a.i./ha) | Leaf drop [%] 8 days after application ([1]; Test 1, dose 15 g of a.i./ha) | Leaf drop [%] 4 days after application ([1]; Test 2, dose 15 g of a.i./ha) | Leaf drop [%] 8 days after application ([1]; Test 2, dose 15 g of a.i./ha) | Leaf drop [%] 4 days after application ([1]; Test 2, dose 30 g of a.i./ha) | Leaf drop [%] 8 days after application ([1]; Test 2, dose 30 g of a.i./ha) | Regrowth [%] as a percentage of the untreated control ([2]; Table 3, dose 15 g of a.i./ha) | Regrowth [%] as a percentage of the untreated control ([2]; Table 4, dose 15 g of a.i./ha) | Regrowth [%] as a percentage of the untreated control ([2]; Table 4, dose 30 g of a.i./ha)
1 | O=C(Nc1ccccc1)Nc1cnns1 [thidiazuron] | 63% | 0% | +60% |  |  |  |  |  |  |  |  | 
2 | CSc1nnc(C(C)(C)C)c(=O)n1N [metribuzin] | 0% | 0% | 0% | 0% | 0% | 0% | 0% | 0% | 0% | 0% | 0% | 0%
